Here are results for two molecules from ChEMBL document CHEMBL2417394, “Exquisite selectivity for human toll-like receptor 8 in substituted furo[2,3-c]quinolines” (J Med Chem, 2013).

Assay [1] deals with T1, Toll-like receptor 8 (Homo sapiens) (UniProt Q9NR97).
T1 sequence (whole entry): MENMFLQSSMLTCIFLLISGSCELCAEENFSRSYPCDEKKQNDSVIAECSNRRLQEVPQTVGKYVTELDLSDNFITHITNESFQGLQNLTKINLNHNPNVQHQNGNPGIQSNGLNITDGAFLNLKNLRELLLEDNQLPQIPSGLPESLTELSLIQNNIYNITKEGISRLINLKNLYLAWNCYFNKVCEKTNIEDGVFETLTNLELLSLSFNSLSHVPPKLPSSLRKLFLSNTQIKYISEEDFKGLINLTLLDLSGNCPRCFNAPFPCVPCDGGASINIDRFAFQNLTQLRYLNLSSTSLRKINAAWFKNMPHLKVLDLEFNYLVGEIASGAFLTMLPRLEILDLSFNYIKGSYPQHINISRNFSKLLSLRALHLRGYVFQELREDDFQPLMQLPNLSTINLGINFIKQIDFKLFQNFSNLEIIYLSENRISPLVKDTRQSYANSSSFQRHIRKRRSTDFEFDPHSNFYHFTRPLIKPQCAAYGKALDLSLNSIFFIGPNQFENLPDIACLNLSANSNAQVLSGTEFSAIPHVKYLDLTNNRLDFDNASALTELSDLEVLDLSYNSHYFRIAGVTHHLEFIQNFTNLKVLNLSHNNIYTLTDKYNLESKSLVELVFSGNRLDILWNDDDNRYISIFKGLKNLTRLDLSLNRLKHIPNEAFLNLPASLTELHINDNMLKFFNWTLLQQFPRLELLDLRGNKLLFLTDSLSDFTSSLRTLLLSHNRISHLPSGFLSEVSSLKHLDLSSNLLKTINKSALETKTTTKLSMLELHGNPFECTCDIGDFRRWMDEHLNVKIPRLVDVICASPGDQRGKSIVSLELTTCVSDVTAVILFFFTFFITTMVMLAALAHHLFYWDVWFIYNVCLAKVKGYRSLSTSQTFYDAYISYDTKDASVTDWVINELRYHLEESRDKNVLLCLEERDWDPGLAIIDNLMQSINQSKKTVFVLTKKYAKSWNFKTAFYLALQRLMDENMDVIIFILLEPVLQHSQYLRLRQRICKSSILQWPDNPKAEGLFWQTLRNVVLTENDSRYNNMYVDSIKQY
Put plainly: Modulation of human TLR8 expressed in HEK293 cells co-transfected with MD2 and sAP assessed as induction of NF-kappaB activity by reporter gene assay. In kind it is cell-based. A general note: In a reporter assay the amount or activity of a reporter protein is the signal.

The target of assay [2] is Nucleotide-binding oligomerization domain-containing protein 2 (Homo sapiens) (UniProt Q9HC29). Put plainly: Modulation of NOD2 (unknown origin).
The target of assay [3] is T2, Nucleotide-binding oligomerization domain-containing protein 1 (Homo sapiens) (UniProt Q9Y239).
T2 sequence (whole entry): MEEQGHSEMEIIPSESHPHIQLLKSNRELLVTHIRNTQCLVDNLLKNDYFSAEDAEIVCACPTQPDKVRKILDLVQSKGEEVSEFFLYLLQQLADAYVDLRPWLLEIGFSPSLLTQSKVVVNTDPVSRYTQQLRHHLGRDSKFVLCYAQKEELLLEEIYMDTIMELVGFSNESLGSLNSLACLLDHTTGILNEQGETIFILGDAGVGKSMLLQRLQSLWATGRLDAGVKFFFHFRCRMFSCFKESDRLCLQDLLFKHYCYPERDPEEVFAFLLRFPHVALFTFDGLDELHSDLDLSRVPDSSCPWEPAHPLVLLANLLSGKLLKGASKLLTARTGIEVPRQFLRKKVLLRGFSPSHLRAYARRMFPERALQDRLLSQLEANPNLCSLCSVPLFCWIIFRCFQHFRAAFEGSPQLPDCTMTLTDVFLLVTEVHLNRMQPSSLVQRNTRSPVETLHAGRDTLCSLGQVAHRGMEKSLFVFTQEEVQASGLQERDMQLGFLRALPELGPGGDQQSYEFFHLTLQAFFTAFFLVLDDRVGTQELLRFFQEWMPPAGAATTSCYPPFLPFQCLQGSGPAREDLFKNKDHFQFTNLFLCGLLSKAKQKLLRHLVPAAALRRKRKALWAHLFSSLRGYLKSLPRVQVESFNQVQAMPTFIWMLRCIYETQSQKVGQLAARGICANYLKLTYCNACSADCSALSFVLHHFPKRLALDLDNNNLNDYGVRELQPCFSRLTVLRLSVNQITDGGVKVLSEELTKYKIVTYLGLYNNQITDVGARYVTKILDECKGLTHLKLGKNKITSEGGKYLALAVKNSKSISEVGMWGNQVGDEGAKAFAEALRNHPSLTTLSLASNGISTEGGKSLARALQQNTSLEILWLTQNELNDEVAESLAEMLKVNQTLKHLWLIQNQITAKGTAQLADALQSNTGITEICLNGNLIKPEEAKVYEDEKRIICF
Put plainly: Modulation of NOD1 (unknown origin).

Assay [4] has as its target Toll-like receptor 4 (Homo sapiens) (UniProt O00206). Description: Modulation of human TLR4 expressed in HEK293 cells co-transfected with MD2 and sAP assessed as induction of NF-kappaB activity by reporter gene assay. The format is cell-based.
Assay [5] concerns the target Toll-like receptor 3 (Homo sapiens) (UniProt O15455). Put plainly: Modulation of human TLR3 expressed in HEK293 cells co-transfected with MD2 and sAP assessed as induction of NF-kappaB activity by reporter gene assay. In kind it is cell-based.

Calls of active or inactive are those of the source. The calls are words filed in the database; no cut-off is given here.

Sequence of Toll-like receptor 4 (Homo sapiens) (O00206 whole entry): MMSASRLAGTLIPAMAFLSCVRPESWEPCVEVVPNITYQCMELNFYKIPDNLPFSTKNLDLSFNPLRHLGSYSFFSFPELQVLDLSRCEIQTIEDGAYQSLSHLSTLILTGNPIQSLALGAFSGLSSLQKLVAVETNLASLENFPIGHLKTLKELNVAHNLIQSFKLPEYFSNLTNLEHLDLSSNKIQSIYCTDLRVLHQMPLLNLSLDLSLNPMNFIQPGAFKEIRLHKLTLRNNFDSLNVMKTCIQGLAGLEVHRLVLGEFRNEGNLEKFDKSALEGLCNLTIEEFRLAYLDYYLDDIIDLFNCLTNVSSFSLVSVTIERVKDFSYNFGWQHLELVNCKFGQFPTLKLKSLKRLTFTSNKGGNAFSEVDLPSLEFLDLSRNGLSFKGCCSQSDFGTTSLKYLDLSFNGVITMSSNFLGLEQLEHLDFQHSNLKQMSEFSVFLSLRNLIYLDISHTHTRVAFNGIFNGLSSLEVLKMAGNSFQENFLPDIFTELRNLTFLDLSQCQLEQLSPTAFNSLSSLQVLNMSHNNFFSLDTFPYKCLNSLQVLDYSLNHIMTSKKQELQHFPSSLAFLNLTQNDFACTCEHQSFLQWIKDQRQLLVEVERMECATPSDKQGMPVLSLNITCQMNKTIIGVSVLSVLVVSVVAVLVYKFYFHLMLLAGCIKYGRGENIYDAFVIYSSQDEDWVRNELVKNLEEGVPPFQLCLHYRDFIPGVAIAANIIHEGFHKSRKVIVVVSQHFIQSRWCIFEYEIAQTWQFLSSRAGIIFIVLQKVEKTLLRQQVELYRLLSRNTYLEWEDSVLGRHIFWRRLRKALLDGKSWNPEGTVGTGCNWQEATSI
Sequence of Toll-like receptor 3 (Homo sapiens) (O15455 whole entry): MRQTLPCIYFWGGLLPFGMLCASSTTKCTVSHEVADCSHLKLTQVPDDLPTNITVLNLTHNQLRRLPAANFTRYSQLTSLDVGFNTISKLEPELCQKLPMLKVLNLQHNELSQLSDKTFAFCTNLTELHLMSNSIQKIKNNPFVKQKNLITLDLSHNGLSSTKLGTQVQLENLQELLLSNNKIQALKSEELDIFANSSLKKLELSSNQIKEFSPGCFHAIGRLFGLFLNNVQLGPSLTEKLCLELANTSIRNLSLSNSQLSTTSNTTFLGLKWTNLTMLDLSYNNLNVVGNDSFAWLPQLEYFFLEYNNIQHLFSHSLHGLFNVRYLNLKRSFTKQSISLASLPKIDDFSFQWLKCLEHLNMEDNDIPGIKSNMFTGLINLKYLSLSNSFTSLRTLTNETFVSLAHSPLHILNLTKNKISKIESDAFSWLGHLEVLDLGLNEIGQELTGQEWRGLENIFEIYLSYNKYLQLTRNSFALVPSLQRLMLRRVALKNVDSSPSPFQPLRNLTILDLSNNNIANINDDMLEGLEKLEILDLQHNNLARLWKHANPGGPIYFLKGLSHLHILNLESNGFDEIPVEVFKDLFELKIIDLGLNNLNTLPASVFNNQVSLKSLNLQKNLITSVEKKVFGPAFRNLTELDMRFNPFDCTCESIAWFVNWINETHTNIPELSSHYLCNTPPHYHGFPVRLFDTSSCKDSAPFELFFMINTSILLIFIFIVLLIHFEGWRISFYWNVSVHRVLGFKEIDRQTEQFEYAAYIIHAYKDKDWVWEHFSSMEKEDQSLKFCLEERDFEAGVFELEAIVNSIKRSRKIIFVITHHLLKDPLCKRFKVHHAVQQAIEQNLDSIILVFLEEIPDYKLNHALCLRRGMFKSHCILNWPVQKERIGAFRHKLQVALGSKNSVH
Sequence of Nucleotide-binding oligomerization domain-containing protein 2 (Homo sapiens) (Q9HC29 whole entry, the tested form may be a part): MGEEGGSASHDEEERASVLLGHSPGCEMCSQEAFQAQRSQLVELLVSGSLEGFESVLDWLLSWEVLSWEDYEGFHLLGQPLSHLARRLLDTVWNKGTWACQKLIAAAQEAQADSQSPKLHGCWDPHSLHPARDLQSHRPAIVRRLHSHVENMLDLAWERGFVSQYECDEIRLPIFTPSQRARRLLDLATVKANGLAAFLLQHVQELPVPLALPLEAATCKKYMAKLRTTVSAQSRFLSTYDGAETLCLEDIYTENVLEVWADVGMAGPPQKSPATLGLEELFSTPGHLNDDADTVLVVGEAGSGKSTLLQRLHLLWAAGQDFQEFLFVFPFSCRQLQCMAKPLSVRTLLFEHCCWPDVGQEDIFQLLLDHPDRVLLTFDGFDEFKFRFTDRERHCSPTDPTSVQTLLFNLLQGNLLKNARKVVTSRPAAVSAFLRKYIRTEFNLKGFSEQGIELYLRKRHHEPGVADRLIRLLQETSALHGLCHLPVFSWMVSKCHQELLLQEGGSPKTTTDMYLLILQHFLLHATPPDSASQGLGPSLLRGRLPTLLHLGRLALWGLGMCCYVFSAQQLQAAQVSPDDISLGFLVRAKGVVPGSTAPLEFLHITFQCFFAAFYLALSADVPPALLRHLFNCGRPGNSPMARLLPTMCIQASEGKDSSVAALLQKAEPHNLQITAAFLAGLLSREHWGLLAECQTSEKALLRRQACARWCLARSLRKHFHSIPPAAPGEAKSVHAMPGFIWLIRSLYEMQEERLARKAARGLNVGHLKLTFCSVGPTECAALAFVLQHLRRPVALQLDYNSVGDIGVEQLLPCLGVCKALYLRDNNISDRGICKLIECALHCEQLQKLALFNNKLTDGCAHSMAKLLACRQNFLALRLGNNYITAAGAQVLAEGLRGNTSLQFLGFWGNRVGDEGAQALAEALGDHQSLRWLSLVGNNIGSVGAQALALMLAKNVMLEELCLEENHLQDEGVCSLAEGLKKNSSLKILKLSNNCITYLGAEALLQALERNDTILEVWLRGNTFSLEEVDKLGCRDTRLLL

Take `NCCc1cc2c(o1)c(N)nc1ccccc12`: the outcome in assay [1], in assay [2], in assay [3], in assay [4] and in assay [5] was Active.
For the molecule `CCCCc1cc2c(nc(N)c3ccccc32)o1`, the result in assay [1], in assay [4] and in assay [5] was inactive.
